Test system: Rat white adipocytes
Experiment: Inhibition of the differentiation of adipocytes (Oil Red O)
Type: cell-based
Settings: Rattus norvegicus, Adipocyte, 120 h, 100 nM test compound; 5 days; Oil Red O ABS550; control = 100%, blank = 0%; Table 3; read-out: Rate of Differentiation (%)
Outline: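 Rat white preadipocytes, 5,000 cells/well, given differentiation medium with compound at 100 nM final (0.1% DMSO) for 5 days at 37 °C. Lipid stained with Oil Red O, eluted in DMSO, read at 550 nm; differentiation % relative to DMSO control (100%) and blank (0%).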

Question: Which activity at 0.1 µM does the source give for N#Cc1ccc(NC(=O)c2cc([N+](=O)[O-])ccc2Cl)cc1 [Example 20, N-(4-Cyanophenyl)-(2-chloro-5-nitrophenyl)carboxamide] here?
Answer: The activity at 0.1 µM was 57.7%.

Test system: human colon cancer cells COL-2-JCK
Experiment: Inhibition of colony forming activity in human colon cancer cells
Type: cell-based
Settings: 1 μM test compound; 10 days; sum of colony areas vs control
Outline: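 COL-2-JCK cells seeded at 300 cells/well and grown 10 days at 37 °C, 5% CO2 with compound at 1 μM final (0.1% DMSO). Colonies stained with crystal violet in formalin; inhibition % = (1 − treated/control colony area)×100.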

Question: Which “Inhibition Rate (%) against the colony forming activity” value does the source give for Cc1cc(NS(=O)(=O)c2ccc(NC(=O)c3cc([N+](=O)[O-])ccc3Cl)cc2)no1 [Example 99] here?
Answer: The value was 32.0%.

Question: For “N-[4-(Pyrrolidinylsulfonyl)phenyl]-(2-chloro-5-nitrophenyl)carboxamide [Example 152]”, which “Inhibition Rate (%) against the colony forming activity” value is on record?
Answer: Its value is 24.0%.

Same assay, conditions: Homo sapiens, 240 h; 1 μM test compound; 10 days; sum of colony areas vs control; read-out: Inhibition Rate (%) against the colony forming activity

Question: How did the inhibition at 1 µM turn out when N#Cc1ccc(NC(=O)c2cc([N+](=O)[O-])ccc2Cl)cc1 [Example 20, N-(4-Cyanophenyl)-(2-chloro-5-nitrophenyl)carboxamide] was run?
Answer: The inhibition at 1 µM was 37%.

Question: How did the inhibition at 1 µM turn out when Cc1ccccc1-c1csc(NC(=O)c2cc([N+](=O)[O-])ccc2Cl)n1 [Example 39, N-[4-(2-Methylphenyl)thiazol-2-yl]-(2-chloro-5-nitrophenyl)carboxamide] was run?
Answer: Its inhibition at 1 µM is 48%.

Question: Cc1cccc(-c2csc(NC(=O)c3cc([N+](=O)[O-])ccc3Cl)n2)c1 [Example 40, N-[4-(3-Methylphenyl)thiazol-2-yl)-(2-chloro-5-nitrophenyl)carboxamide] was tested. Which inhibition at 1 µM did it give?
Answer: Its inhibition at 1 µM is 35%.

Question: For O=C(Nc1nc(-c2cccc3ccccc23)cs1)c1cc([N+](=O)[O-])ccc1Cl [Example 41, N-[4-(1-Naphthyl)thiazol-2-yl]-(2-chloro-5-nitrophenyl)carboxamide], which inhibition at 1 µM is on record?
Answer: The inhibition at 1 µM was 55%.

Question: How did the inhibition at 1 µM turn out when CCc1ccc(-c2csc(NC(=O)c3cc([N+](=O)[O-])ccc3Cl)n2)cc1 [Example 44, N-[4-(4-Ethylphenyl)thiazol-2-yl]-(2-chloro-5-nitrophenyl)carboxamide] was run?
Answer: Its inhibition at 1 µM is 35%.

Question: How did the inhibition at 1 µM turn out when Cc1nc(NC(=O)c2cc([N+](=O)[O-])ccc2Cl)sc1C [Example 47] was run?
Answer: Its inhibition at 1 µM is 18%.

Question: For Cc1cccc(NC(=O)c2cc([N+](=O)[O-])ccc2Cl)n1 [Example 51, N-(6-Methylpyridin-2-yl)-(2-chloro-5-nitrophenyl)carboxamide], which inhibition at 1 µM is on record?
Answer: The inhibition at 1 µM was 15%.

Question: Cc1ccc(NC(=O)c2cc([N+](=O)[O-])ccc2Cl)nc1 [Example 52, N-(5-Methylpyridin-2-yl)-(2-chloro-5-nitrophenyl)carboxamide] was tested. Which inhibition at 1 µM did it give?
Answer: Its inhibition at 1 µM is 17%.

Question: Which inhibition at 1 µM does the source give for O=C(Nc1cccc2cccnc12)c1cc([N+](=O)[O-])ccc1Cl [Example 57, N-(8-Quinolinyl)-(2-chloro-5-nitrophenyl)carboxamide] here?
Answer: The inhibition at 1 µM was 5%.

Question: For O=C(Nc1ccc(S(=O)(=O)Nc2nccs2)cc1)c1cc([N+](=O)[O-])ccc1Cl [Example 96, N-[4-(Thiazol-2-yl)aminosulfonyl]phenyl-(2-chloro-5-nitrophenyl)carboxamide], which inhibition at 1 µM is on record?
Answer: The inhibition at 1 µM was 17%.

Question: With O=C(Nc1ccc(S(=O)(=O)Nc2ccc(Cl)nn2)cc1)c1cc([N+](=O)[O-])ccc1Cl [Example 102, N-[4-[(6-Chloropyridazin-3-yl)aminosulfonyl]phenyl]-(2-chloro-5-nitrophenyl)carboxamide] as the compound, how does the inhibition at 1 µM read?
Answer: The inhibition at 1 µM was 26%.
